Legend:
AT2 receptor [1] = details: 3-day treatment, undifferentiated NG108-15 cells; reported by Blankley et al; cited from earlier work
AT2 receptor [2] = assay: neurite outgrowth assay in NG108-15 cells (functional activity at the AT2 receptor); format: cell-based; details: PD 123319 alone (10 μM), 3 days
Procedure: The functional activity of the analogues of the present invention was evaluated at the AT2 receptor, applying a neurite outgrowth assay in NG108-15 [108CC15] (ATCC® HB12317™) cells. […] The signaling pathways involve a sustained increase in Rap1/BRaf/p42/p44mapk activity and activation of the nitric oxide/guanylyl cyclase/cGMP pathway. NG108-15 cells were treated in absence or presence of Ang II and PD 123319, an AT2 receptor antagonist. The cells were plated at the initial density of 3.6×10^4 cells/petri dish (35 mm) and were cultured for 3 days in the absence (−) or presence (+) of 100 nM Ang II, 1 μM analogue 3, analogue 2 and analogue 1 alone or in combination with 10 μM antagonist PD 123,319 or 100 nM AngII. After 3 days of treatment, the cells were examined under a phase contrast microscope and micrographs were taken. Cells with at least one neurite longer than a cell body were counted as a positive neurite outgrowth. Antagonistic effect was established through co-incubation with Ang II resulting in reduced Ang II-induced neurite outgrowth, verifying blockage of the AT2 receptor. […] The number of cells with neurites was expressed as the percentage of the total number in the micrographs (at least 260 cells according to the experiment). […]
NG108-15 [108CC15] […] Cells with at least one neurite longer than a cell body were counted as positive for neurite outgrowth. […]

CGP-42112A
neurite outgrowth in NG108-15 cells (earlier reported) (AT2 receptor [1]): induces neurite outgrowth

Cc1cc(Cn2cnc3c2C[C@@H](C(=O)O)N(C(=O)C(c2ccccc2)c2ccccc2)C3)ccc1N(C)C [PD 123319]
cell morphology compared to untreated cells (AT2 receptor [2]): did not alter the morphology

Asp-Arg-Val-Tyr-Ile-His-Pro-Phe (DRVYIHPF) [Ang II, octapeptide, endogenous substrate for AT1 and AT2 receptors]
neurite outgrowth in NG108-15 cells (earlier reported) (AT2 receptor [1]): induces neurite outgrowth
